Assay results published in ChEMBL document CHEMBL1201862, “PubChem BioAssay data set” (2004).
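Where inhibition never reached the appropriate level, the endpoint shown equals the highest concentration tested. Otherwise, values were interpolated linearly from a five-concentration, 48-hour dose response in 96-well plates. GI50 = concentration required for 50% inhibition of growth.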 Activity calls are given as the source filed them. Cut-off read from the data, not from the text of the source: active = GI50 up to about 1.1 µM and inactive = higher.

Assays:
Test in all cases: inhibition of tumour cell growth, NCI panel, 48 h
K562 = test system: K562
M14 = test system: M14
RPMI-8226 = test system: RPMI-8226
HOP-92 = test system: HOP-92
NCI/ADR-RES = test system: NCI/ADR-RES
OVCAR-5 = test system: OVCAR-5
NCI-H226 = test system: NCI-H226
T47D = test system: T47D
MDA-N = test system: MDA-N
SK-MEL-2 = test system: SK-MEL-2
SNB-75 = test system: SNB-75
IGROV-1 = test system: IGROV-1
HOP-62 = test system: HOP-62
MCF7 = test system: MCF7
SK-MEL-5 = test system: SK-MEL-5
HCT-15 = test system: HCT-15
OVCAR-8 = test system: OVCAR-8
NCI-H522 = test system: NCI-H522
U-251 = test system: U-251
HL-60 = test system: HL-60
SW-620 = test system: SW-620
SF-268 = test system: SF-268
EKVX = test system: EKVX
SNB-19 = test system: SNB-19
HT-29 = test system: HT-29
MOLT-4 = test system: MOLT-4
MDA-MB-435 = test system: MDA-MB-435
A549 = test system: A549
UACC-257 = test system: UACC-257
NCI-H460 = test system: NCI-H460
NCI-H23 = test system: NCI-H23
ACHN = test system: ACHN
Malme-3M = test system: Malme-3M
KM12 = test system: KM12
OVCAR-4 = test system: OVCAR-4
786-0 = test system: 786-0
COLO 205 = test system: COLO 205
OVCAR-3 = test system: OVCAR-3
LOX IMVI = test system: LOX IMVI
SF-539 = test system: SF-539
PC-3 = test system: PC-3
SK-OV-3 = test system: SK-OV-3
SF-295 = test system: SF-295
SN12C = test system: SN12C
SR = test system: SR
SK-MEL-28 = test system: SK-MEL-28
TK-10 = test system: TK-10
HCT-116 = test system: HCT-116
BT-549 = test system: BT-549
MDA-MB-231 = test system: MDA-MB-231
CCRF-CEM = test system: CCRF-CEM
A498 = test system: A498
DU-145 = test system: DU-145
CAKI-1 = test system: CAKI-1
UO-31 = test system: UO-31
UACC-62 = test system: UACC-62
HCC 2998 = test system: HCC 2998
RXF 393 = test system: RXF 393
Hs-578T = test system: Hs-578T

OC[C@H](O)[C@@H](OCc1ccccc1)[C@H](NCc1ccccc1)c1cccs1
GI50 (K562): > 100 µM (inactive)
GI50 (M14): > 100 µM (inactive)
GI50 (RPMI-8226): 92 µM (inactive)
GI50 (HOP-92): > 100 µM (inactive)
GI50 (NCI/ADR-RES): > 100 µM (inactive)
GI50 (OVCAR-5): > 100 µM (inactive)
GI50 (NCI-H226): > 100 µM (inactive)
GI50 (T47D): > 100 µM (inactive)
GI50 (MDA-N): > 100 µM (inactive)
GI50 (SK-MEL-2): > 100 µM (inactive)
GI50 (SNB-75): 65.3 µM (inactive)
GI50 (IGROV-1): 75.5 µM (inactive)
GI50 (HOP-62): > 100 µM (inactive)
GI50 (MCF7): > 100 µM (inactive)
GI50 (SK-MEL-5): > 100 µM (inactive)
GI50 (HCT-15): > 100 µM
GI50 (OVCAR-8): > 100 µM (inactive)
GI50 (NCI-H522): > 100 µM (inactive)
GI50 (U-251): > 100 µM (inactive)
GI50 (HL-60): > 100 µM (inactive)
GI50 (SW-620): > 100 µM (inactive)
GI50 (SF-268): 4.11 µM (inactive)
GI50 (EKVX): > 100 µM (inactive)
GI50 (SNB-19): 21.4 µM (inactive)
GI50 (HT-29): 60 µM (inactive)
GI50 (MOLT-4): > 100 µM (inactive)
GI50 (MDA-MB-435): > 100 µM (inactive)
GI50 (A549): > 100 µM (inactive)
GI50 (UACC-257): > 100 µM (inactive)
GI50 (NCI-H460): 85.7 µM (inactive)
GI50 (NCI-H23): 55.7 µM (inactive)
GI50 (ACHN): > 100 µM (inactive)
GI50 (Malme-3M): > 100 µM (inactive)
GI50 (KM12): > 100 µM (inactive)
GI50 (OVCAR-4): > 100 µM (inactive)
GI50 (786-0): > 100 µM (inactive)
GI50 (COLO 205): > 100 µM (inactive)
GI50 (OVCAR-3): > 100 µM (inactive)
GI50 (LOX IMVI): > 100 µM (inactive)
GI50 (SF-539): > 100 µM (inactive)
GI50 (PC-3): 98.4 µM (inactive)
GI50 (SK-OV-3): > 100 µM (inactive)
GI50 (SF-295): > 100 µM (inactive)
GI50 (SN12C): > 100 µM (inactive)
GI50 (SR): > 100 µM (inactive)
GI50 (SK-MEL-28): > 100 µM (inactive)
GI50 (TK-10): > 100 µM (inactive)
GI50 (HCT-116): 99.5 µM (inactive)
GI50 (BT-549): > 100 µM (inactive)
GI50 (MDA-MB-231): > 100 µM (inactive)
GI50 (CCRF-CEM): > 100 µM (inactive)
GI50 (A498): > 100 µM (inactive)
GI50 (DU-145): > 100 µM (inactive)
GI50 (CAKI-1): > 100 µM (inactive)
GI50 (UO-31): 15.5 µM (inactive)
GI50 (UACC-62): > 100 µM (inactive)

O=C(O)C1=CN(c2ccncc2)C(c2ccco2)=CC1c1ccccc1[N+](=O)[O-] (centres undefined)
GI50 (K562): 2.58 µM (inactive)
GI50 (M14): 10.7 µM (inactive)
GI50 (RPMI-8226): 2.67 µM (inactive)
GI50 (HOP-92): 11.9 µM (inactive)
GI50 (NCI/ADR-RES): 22.9 µM (inactive)
GI50 (OVCAR-5): 7.13 µM (inactive)
GI50 (NCI-H226): 4.72 µM (inactive)
GI50 (T47D): 10.6 µM (inactive)
GI50 (SK-MEL-2): 15.7 µM (inactive)
GI50 (SNB-75): 7.36 µM (inactive)
GI50 (HCC 2998): 1.82 µM (inactive)
GI50 (IGROV-1): 2 µM (inactive)
GI50 (HOP-62): 13.8 µM (inactive)
GI50 (MCF7): 2.99 µM (inactive)
GI50 (SK-MEL-5): 6.65 µM (inactive)
GI50 (HCT-15): 2.05 µM
GI50 (OVCAR-8): 17.3 µM (inactive)
GI50 (NCI-H522): 3.22 µM (inactive)
GI50 (U-251): 6.31 µM (inactive)
GI50 (HL-60): 3.19 µM (inactive)
GI50 (SW-620): 10.2 µM (inactive)
GI50 (SF-268): 5.71 µM (inactive)
GI50 (EKVX): 6.58 µM (inactive)
GI50 (SNB-19): 12.5 µM (inactive)
GI50 (HT-29): 2.13 µM (inactive)
GI50 (MOLT-4): 3.03 µM (inactive)
GI50 (MDA-MB-435): 15.1 µM (inactive)
GI50 (A549): 15.6 µM (inactive)
GI50 (UACC-257): 2.31 µM (inactive)
GI50 (NCI-H460): 14.6 µM (inactive)
GI50 (NCI-H23): 14.5 µM (inactive)
GI50 (ACHN): 2.1 µM (inactive)
GI50 (Malme-3M): 9.53 µM (inactive)
GI50 (KM12): 1.75 µM (inactive)
GI50 (OVCAR-4): 13.9 µM (inactive)
GI50 (786-0): 2.16 µM (inactive)
GI50 (COLO 205): 16.6 µM (inactive)
GI50 (OVCAR-3): 7 µM (inactive)
GI50 (LOX IMVI): 1.97 µM (inactive)
GI50 (SF-539): 3.11 µM (inactive)
GI50 (PC-3): 13.9 µM (inactive)
GI50 (SK-OV-3): 16.3 µM (inactive)
GI50 (SF-295): 12.8 µM (inactive)
GI50 (RXF 393): 6.31 µM (inactive)
GI50 (SN12C): 13.6 µM (inactive)
GI50 (SR): 1.94 µM (inactive)
GI50 (Hs-578T): 14.4 µM (inactive)
GI50 (SK-MEL-28): 12.8 µM (inactive)
GI50 (TK-10): 6.17 µM (inactive)
GI50 (HCT-116): 1.96 µM (inactive)
GI50 (BT-549): 12.1 µM (inactive)
GI50 (MDA-MB-231): 14.6 µM (inactive)
GI50 (CCRF-CEM): 2.69 µM (inactive)
GI50 (A498): 13 µM (inactive)
GI50 (DU-145): 13.5 µM (inactive)
GI50 (CAKI-1): 16.5 µM (inactive)
GI50 (UO-31): 10.4 µM (inactive)
GI50 (UACC-62): 15.6 µM (inactive)
